Measured values from publication PMC3545992, “Trisubstituted Pyrazolopyrimidines as Novel Angiogenesis Inhibitors” (PLoS ONE, 2013).

What was measured:
Cdk2 = tested on: Cdk2; design: method as in Jorda et al. [23]; details: ref Jorda et al. [23]; cited from earlier work
Cdk5 = tested on: Cdk5; design: method as in Jorda et al. [23]; details: ref Jorda et al. [23]; cited from earlier work
HMEC-1 cells = experiment: Microscopy / propidium iodide staining for cell death at proliferation-assay cell density; format: cell-based; details: 30 µM, 72 h
Experimental: A: HMEC-1 cells were seeded in the same density as for the proliferation assay and treated with the respective compound at 30 µM for 72 h to test whether reduced cell numbers in the proliferation assay are due to inhibition of proliferation or to excessive cell death. No increase of detached, obviously dead or propidium iodide positive cells was detected. B and C: Confluent layers of HUVECs were scratched and the cells were allowed to migrate for 16 h in the presence or absence of 10 µM of the compounds. B: The columns indicate the area re-covered by migrating cells (n = 3, mean ± SEM, * p<0.05, One Way ANOVA, Dunnett). C: Scratches at endpoint, representative images taken out of three experiments.
HMEC-1 were seeded into 96-well-plates (1,500 cells/well). After 24 h, the cells were stimulated with the indicated compounds. At the same time point, cells in a reference plate were stained with crystal violet, serving as initial cell number. After 72 hours of stimulation, cells were fixed and stained with crystal-violet solution for 10 minutes, washed with water, and air dried. Crystal violet was eluted with dissolving buffer and absorbance was measured at 550 nm (Tecan Sunrise Absorbance reader, TECAN, Crailsheim, Germany). […] Phase contrast and fluorescence images were obtained with an inverted Nikon microscope (Ti, Nikon, Düsseldorf, Germany) equipped with a 10x objective.

Aurora kinase A = target: T1, Aurora kinase A (Homo sapiens, UniProt O14965); experiment: In vitro kinase profile (ProQinase); format: biochemical
T1 construct: purchased ProQinase (Freiburg, Germany)
T1 sequence (O14965 1-403): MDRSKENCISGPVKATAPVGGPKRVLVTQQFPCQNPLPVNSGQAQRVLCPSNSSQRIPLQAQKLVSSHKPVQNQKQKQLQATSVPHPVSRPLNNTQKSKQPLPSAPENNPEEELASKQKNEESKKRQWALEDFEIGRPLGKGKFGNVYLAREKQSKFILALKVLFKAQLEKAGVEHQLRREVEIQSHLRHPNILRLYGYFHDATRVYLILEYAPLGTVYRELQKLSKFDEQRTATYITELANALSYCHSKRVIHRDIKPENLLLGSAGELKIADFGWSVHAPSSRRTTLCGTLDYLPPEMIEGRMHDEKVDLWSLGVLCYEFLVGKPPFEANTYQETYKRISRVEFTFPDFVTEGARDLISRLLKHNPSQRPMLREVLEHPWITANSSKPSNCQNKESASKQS
Experimental: (§1) Therefore, it was of interest to see which kinases, especially which Cdks, are inhibited by those compounds. The kinase profiling was performed by ProQinase (Freiburg, Germany) for LGR 1406 and 1407. For LGR 1404 kinase profiling has recently been published previously. LGR 1406 and 1407 were tested for their IC50 in a panel of 24 kinases, including the Cdk1, Cdk2, Cdk4, Cdk5, Cdk6, Cdk7 and Cdk9. The other kinases tested were PTK6, EGFR, FAK, FGFR1 and FGFR2, NLK, PAK4, VEGFR1 and VEGFR2, MEK1, ROCK1, RAF1, ALK, RSK3, AURKA, and AMPKα1.

Cdk1/CycB = target: T2, Cdk1/CycB (Homo sapiens, UniProt P06493); experiment: In vitro kinase profile (ProQinase); format: biochemical
T2 construct: purchased ProQinase (Freiburg, Germany)
T2 sequence (P06493 whole entry): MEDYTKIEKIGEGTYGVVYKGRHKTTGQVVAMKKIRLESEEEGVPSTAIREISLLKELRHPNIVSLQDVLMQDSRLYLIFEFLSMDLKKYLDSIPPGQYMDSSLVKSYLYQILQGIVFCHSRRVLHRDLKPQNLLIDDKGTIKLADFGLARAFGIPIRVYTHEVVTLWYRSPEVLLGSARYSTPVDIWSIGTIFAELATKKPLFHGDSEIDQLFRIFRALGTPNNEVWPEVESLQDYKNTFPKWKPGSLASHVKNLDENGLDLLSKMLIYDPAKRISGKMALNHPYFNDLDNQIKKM
T2 sequence (P14635 whole entry partner): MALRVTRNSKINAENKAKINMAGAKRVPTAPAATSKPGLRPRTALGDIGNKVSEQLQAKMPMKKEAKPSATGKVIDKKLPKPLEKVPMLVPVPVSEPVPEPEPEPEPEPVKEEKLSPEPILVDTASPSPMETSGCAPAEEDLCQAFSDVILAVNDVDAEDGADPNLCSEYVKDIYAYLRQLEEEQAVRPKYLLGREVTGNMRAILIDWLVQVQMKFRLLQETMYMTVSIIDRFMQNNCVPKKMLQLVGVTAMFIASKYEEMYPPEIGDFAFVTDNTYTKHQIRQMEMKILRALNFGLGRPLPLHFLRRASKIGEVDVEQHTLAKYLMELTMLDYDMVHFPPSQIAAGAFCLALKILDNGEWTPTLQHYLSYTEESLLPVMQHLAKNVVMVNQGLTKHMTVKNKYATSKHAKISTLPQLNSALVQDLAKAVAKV
Experimental: as §1

Cdk2/CycA = target: T3, Cdk2/CycA (Homo sapiens, UniProt P24941); experiment: In vitro kinase profile (ProQinase); format: biochemical
T3 construct: purchased ProQinase (Freiburg, Germany)
Experimental: as §1

Cdk6/CycD1 = target: T4, Cdk6/CycD1 (Homo sapiens, UniProt Q00534); experiment: In vitro kinase profile (ProQinase); format: biochemical
T4 construct: purchased ProQinase (Freiburg, Germany)
T4 sequence (Q00534 whole entry): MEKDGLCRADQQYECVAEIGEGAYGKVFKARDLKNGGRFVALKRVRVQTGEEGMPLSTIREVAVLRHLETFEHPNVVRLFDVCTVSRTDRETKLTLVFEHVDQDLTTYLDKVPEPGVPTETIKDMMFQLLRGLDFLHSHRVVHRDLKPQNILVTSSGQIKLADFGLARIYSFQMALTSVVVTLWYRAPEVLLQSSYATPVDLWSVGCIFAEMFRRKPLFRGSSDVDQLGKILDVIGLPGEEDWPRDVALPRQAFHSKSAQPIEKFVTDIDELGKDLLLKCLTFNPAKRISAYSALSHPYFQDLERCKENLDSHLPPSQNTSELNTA
T4 sequence (P24385 whole entry partner): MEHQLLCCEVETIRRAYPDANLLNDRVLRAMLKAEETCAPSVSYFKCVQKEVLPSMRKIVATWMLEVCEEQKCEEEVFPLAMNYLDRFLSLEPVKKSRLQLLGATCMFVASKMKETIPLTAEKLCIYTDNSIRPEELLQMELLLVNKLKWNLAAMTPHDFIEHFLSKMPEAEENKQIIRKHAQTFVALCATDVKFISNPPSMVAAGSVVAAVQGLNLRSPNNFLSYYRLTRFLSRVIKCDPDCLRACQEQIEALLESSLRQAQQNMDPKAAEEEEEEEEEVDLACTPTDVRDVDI
Experimental: as §1

FAK = target: T5, FAK (Homo sapiens, UniProt Q05397); experiment: In vitro kinase profile (ProQinase); format: biochemical
T5 construct: purchased ProQinase (Freiburg, Germany)
T5 sequence (Q05397 whole entry): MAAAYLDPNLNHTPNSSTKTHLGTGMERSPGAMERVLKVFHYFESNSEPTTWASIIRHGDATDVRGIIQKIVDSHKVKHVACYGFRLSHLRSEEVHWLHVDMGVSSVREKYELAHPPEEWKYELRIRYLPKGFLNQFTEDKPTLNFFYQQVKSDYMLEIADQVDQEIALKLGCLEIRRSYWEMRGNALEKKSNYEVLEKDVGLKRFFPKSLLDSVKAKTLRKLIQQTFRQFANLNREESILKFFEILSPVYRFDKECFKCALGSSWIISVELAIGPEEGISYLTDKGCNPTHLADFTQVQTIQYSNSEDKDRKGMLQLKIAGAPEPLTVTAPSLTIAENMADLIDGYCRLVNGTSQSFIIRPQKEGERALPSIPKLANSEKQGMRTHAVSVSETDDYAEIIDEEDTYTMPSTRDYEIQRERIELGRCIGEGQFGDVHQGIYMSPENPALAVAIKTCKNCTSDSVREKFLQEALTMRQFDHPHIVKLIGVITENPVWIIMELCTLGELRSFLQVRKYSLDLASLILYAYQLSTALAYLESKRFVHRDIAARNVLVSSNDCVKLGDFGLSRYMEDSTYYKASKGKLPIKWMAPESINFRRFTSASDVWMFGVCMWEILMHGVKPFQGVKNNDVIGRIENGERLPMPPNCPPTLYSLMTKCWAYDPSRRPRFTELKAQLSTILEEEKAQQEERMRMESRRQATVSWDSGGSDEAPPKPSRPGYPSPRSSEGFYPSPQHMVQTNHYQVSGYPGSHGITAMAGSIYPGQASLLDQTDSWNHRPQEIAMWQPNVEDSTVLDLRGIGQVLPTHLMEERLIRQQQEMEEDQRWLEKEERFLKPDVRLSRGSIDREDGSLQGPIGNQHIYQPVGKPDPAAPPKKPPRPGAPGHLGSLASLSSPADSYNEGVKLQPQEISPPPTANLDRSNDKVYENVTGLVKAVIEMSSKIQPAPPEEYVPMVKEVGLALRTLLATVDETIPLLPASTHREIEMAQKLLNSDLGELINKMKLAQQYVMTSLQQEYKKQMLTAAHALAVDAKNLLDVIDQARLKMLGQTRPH
Experimental: as §1

PAK4 = target: T6, PAK4 (Homo sapiens, UniProt O96013); experiment: In vitro kinase profile (ProQinase); format: biochemical
T6 construct: purchased ProQinase (Freiburg, Germany)
T6 sequence (O96013 whole entry): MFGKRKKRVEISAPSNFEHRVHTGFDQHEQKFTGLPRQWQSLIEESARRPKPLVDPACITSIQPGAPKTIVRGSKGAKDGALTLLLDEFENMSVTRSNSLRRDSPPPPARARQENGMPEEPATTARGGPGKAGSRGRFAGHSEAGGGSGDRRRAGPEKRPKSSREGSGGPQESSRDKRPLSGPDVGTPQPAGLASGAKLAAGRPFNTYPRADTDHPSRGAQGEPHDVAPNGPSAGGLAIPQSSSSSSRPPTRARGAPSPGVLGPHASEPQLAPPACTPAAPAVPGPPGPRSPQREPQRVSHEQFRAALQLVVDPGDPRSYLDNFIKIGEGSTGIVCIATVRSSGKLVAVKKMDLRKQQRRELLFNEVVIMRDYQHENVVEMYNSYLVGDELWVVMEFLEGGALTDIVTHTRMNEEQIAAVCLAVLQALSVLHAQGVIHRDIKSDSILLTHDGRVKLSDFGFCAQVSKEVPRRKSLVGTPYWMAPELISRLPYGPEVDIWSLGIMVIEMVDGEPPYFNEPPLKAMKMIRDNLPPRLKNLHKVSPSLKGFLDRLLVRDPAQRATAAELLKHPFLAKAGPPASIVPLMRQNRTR
Experimental: as §1

RSK3 = target: T7, RSK3 (Homo sapiens, UniProt Q15349); experiment: In vitro kinase profile (ProQinase); format: biochemical
T7 construct: purchased ProQinase (Freiburg, Germany)
T7 sequence (Q15349 whole entry): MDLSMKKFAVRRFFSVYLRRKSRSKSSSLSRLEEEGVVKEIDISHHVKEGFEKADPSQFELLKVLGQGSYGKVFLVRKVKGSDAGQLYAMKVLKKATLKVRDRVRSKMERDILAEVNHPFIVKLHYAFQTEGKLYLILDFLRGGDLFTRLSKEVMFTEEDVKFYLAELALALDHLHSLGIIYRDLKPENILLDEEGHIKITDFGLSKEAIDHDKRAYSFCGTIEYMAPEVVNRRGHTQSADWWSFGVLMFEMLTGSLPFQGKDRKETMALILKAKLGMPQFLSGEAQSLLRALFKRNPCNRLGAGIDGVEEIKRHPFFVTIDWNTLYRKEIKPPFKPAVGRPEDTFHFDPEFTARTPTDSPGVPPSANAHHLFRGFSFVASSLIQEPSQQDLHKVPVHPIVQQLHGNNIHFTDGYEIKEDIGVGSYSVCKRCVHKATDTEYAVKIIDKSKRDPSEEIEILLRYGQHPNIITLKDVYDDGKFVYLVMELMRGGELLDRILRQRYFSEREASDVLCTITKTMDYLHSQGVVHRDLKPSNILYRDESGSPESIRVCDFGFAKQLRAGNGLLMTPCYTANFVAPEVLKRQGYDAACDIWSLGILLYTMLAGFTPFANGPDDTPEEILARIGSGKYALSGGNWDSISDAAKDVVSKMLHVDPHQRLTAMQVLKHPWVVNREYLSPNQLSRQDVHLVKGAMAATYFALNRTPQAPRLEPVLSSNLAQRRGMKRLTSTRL
Experimental: as §1

Structure (SMILES)	IC50 (Cdk2) [µM]	IC50 (Cdk5) [µM]	morphologically altered, dead or detached cells, loss of membrane integrity (propidium iodide) (HMEC-1 cells)	IC50 (Aurora kinase A) [µM]	IC50 (Cdk1/CycB) [µM]	IC50 (Cdk2/CycA) [µM]	IC50 (Cdk6/CycD1) [µM]	IC50 (FAK) [µM]	IC50 (PAK4) [µM]	IC50 (RSK3) [µM]
CC[C@H](CO)Nc1nc(NCc2ccccc2)c2n[nH]c(C(C)C)c2n1 [LGR 1404, 7-Benzylamino-5(R)-[(1-hydroxymethyl)propylamino]-3-isopropyl-1(2)H-pyrazolo[4,3-d]pyrimidine]	0.22	0.94	–	–	–	–	–	–	–	–
CC(C)c1n[nH]c2c(NCc3ccccc3)nc(NC3CCCCC3N)nc12 (centres unmarked) [LGR 1406, 5-[(2-E/Z-aminocyclohexyl)amino]-7-benzylamino-3-isopropyl-1(2)H-pyrazolo[4,3-d]pyrimidine]	–	–	no increase of morphologically altered, dead or detached cells, and no loss of membrane integrity	< 10	3.2	0.99	> 100	< 10	< 10	< 10
CC(C)c1n[nH]c2c(NCc3ccccc3)nc(NC3CCC(N)CC3)nc12 (centres unmarked) [LGR 1407, 5-[(4-E-aminocyclohexyl)amino]-7-benzylamino-3-isopropyl-1(2)H-pyrazolo[4,3-d]pyrimidine]	–	–	–	≤ 10	5.8	1.5	91	–	–	–
